Test results taken from PubChem BioAssay (NCI).
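Tested at 5 concentrations; 48 h exposure; 96-well plates; endpoints linearly interpolated, else capped at highest concentration. The concentration for full growth arrest is given as TGI.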

Legend:
Test in all cases: NCI-60 cell line screen, 48 h
[1] = system: A498 renal
[2] = system: BT-549 breast
[3] = system: COLO 205 colon
[4] = system: DU-145 prostate
[5] = system: HCC-2998 colon
[6] = system: HOP-62 NSCLC
[7] = system: HOP-92 NSCLC
[8] = system: HS 578T breast
[9] = system: HT29 colon
[10] = system: MDA-MB-435
[11] = system: MDA-N
[12] = system: NCI-H226 lung
[13] = system: OVCAR-5 ovarian
[14] = system: RPMI-8226 leukemia
[15] = system: RXF 393 renal
[16] = system: SF-268 CNS
[17] = system: SK-MEL-28 melanoma
[18] = system: SN12C renal
[19] = system: SNB-19 CNS
[20] = system: SNB-75 CNS
[21] = system: TK-10 renal
[22] = system: 786-0 renal
[23] = system: A549 NSCLC
[24] = system: ACHN renal
[25] = system: CAKI-1 renal
[26] = system: CCRF-CEM leukemia
[27] = system: EKVX NSCLC
[28] = system: HCT-116 colon
[29] = system: HCT-15 colon
[30] = system: HL-60(TB) leukemia
[31] = system: IGROV1 ovarian
[32] = system: K-562 leukemia
[33] = system: KM12 colon
[34] = system: LOX IMVI melanoma
[35] = system: M14 melanoma
[36] = system: MALME-3M melanoma
[37] = system: MCF7 breast
[38] = system: MDA-MB-231 breast
[39] = system: MOLT-4 leukemia
[40] = system: NCI-H23 lung
[41] = system: NCI-H460 lung
[42] = system: NCI-H522 lung
[43] = system: OVCAR-3 ovarian
[44] = system: OVCAR-4 ovarian
[45] = system: OVCAR-8 ovarian
[46] = system: PC-3 prostate
[47] = system: SF-295 CNS
[48] = system: SF-539 CNS
[49] = system: SK-MEL-2 melanoma
[50] = system: SK-MEL-5 melanoma
[51] = system: SK-OV-3 ovarian
[52] = system: SR leukemia
[53] = system: SW-620 colon
[54] = system: T-47D breast
[55] = system: U251 CNS
[56] = system: UACC-257 melanoma
[57] = system: UACC-62 melanoma
[58] = system: UO-31 renal
[59] = system: NCI/ADR-RES ovarian

Question: How did the TGI [1] turn out when `CN(C)c1ccc(/C=C2\N=C(N/N=C/c3ccccc3O)NC2=O)cc1` was run?
Answer: 61.7 µM

Question: And the TGI [2]?
Answer: > 100 µM

Question: What about the TGI [3] of the same compound?
Answer: > 100 µM

Question: And the TGI [4]?
Answer: > 100 µM

Question: What about the TGI [5] of the same compound?
Answer: > 100 µM

Question: What about the TGI [6] of the same compound?
Answer: 53 µM

Question: What about the TGI [7] of the same compound?
Answer: 59.7 µM

Question: What about the TGI [8] of the same compound?
Answer: > 100 µM

Question: And the TGI [9]?
Answer: > 100 µM

Question: And the TGI [10]?
Answer: > 100 µM

Question: And the TGI [11]?
Answer: > 100 µM

Question: And the TGI [12]?
Answer: 41.1 µM

Question: And the TGI [13]?
Answer: > 100 µM

Question: And the TGI [14]?
Answer: > 100 µM

Question: And the TGI [15]?
Answer: 55.9 µM

Question: What about the TGI [16] of the same compound?
Answer: > 100 µM

Question: What about the TGI [17] of the same compound?
Answer: 62.7 µM

Question: What about the TGI [18] of the same compound?
Answer: > 100 µM

Question: And the TGI [19]?
Answer: > 100 µM

Question: And the TGI [20]?
Answer: 89.7 µM

Question: And the TGI [21]?
Answer: 59.4 µM

Question: For `C=C1C(=O)OC2C3C(=C)[C@@H](OC(C)=O)CC3C(C)=CC(OC(=O)C(C)(OC(C)=O)C(C)OC(C)=O)[C@@H]12` (some centres undefined), which TGI [22] is on record?
Answer: 33.5 µM

Question: What about the TGI [23] of the same compound?
Answer: 70.4 µM

Question: And the TGI [24]?
Answer: 27 µM

Question: And the TGI [2]?
Answer: 33 µM

Question: And the TGI [25]?
Answer: 23.2 µM

Question: And the TGI [26]?
Answer: 12.3 µM

Question: What about the TGI [3] of the same compound?
Answer: 28.2 µM

Question: And the TGI [4]?
Answer: 30.5 µM

Question: What about the TGI [27] of the same compound?
Answer: 30.9 µM

Question: What about the TGI [5] of the same compound?
Answer: 33.2 µM

Question: What about the TGI [28] of the same compound?
Answer: 23.8 µM

Question: And the TGI [29]?
Answer: 25.7 µM

Question: And the TGI [30]?
Answer: 6.54 µM

Question: And the TGI [6]?
Answer: > 100 µM

Question: And the TGI [8]?
Answer: > 100 µM

Question: What about the TGI [9] of the same compound?
Answer: 27.5 µM

Question: What about the TGI [31] of the same compound?
Answer: 37.7 µM

Question: And the TGI [32]?
Answer: 32.6 µM

Question: What about the TGI [33] of the same compound?
Answer: 33.4 µM

Question: And the TGI [34]?
Answer: 27.3 µM

Question: What about the TGI [35] of the same compound?
Answer: 27.8 µM

Question: What about the TGI [36] of the same compound?
Answer: 26.5 µM

Question: And the TGI [37]?
Answer: 24.1 µM

Question: What about the TGI [38] of the same compound?
Answer: 32.7 µM

Question: What about the TGI [10] of the same compound?
Answer: 31.2 µM

Question: And the TGI [11]?
Answer: 30.1 µM

Question: And the TGI [39]?
Answer: 52.2 µM

Question: And the TGI [12]?
Answer: 51.8 µM

Question: What about the TGI [40] of the same compound?
Answer: 38.3 µM

Question: What about the TGI [41] of the same compound?
Answer: 60.4 µM

Question: And the TGI [42]?
Answer: 11.4 µM

Question: What about the TGI [43] of the same compound?
Answer: 26.7 µM

Question: And the TGI [44]?
Answer: 32.2 µM

Question: And the TGI [13]?
Answer: 42.6 µM

Question: What about the TGI [45] of the same compound?
Answer: > 100 µM

Question: And the TGI [46]?
Answer: 32.4 µM

Question: What about the TGI [14] of the same compound?
Answer: 38.5 µM

Question: And the TGI [15]?
Answer: 31.7 µM

Question: And the TGI [16]?
Answer: 51.1 µM

Question: What about the TGI [47] of the same compound?
Answer: > 100 µM

Question: What about the TGI [48] of the same compound?
Answer: 33.5 µM

Question: And the TGI [49]?
Answer: 27.4 µM

Question: What about the TGI [17] of the same compound?
Answer: 29 µM

Question: What about the TGI [50] of the same compound?
Answer: 25.3 µM

Question: And the TGI [51]?
Answer: > 100 µM

Question: And the TGI [18]?
Answer: 29.5 µM

Question: What about the TGI [19] of the same compound?
Answer: > 100 µM

Question: What about the TGI [20] of the same compound?
Answer: 37.1 µM

Question: And the TGI [52]?
Answer: > 100 µM

Question: What about the TGI [53] of the same compound?
Answer: 21.9 µM

Question: And the TGI [54]?
Answer: 40.5 µM

Question: And the TGI [21]?
Answer: 27.9 µM

Question: And the TGI [55]?
Answer: 30.8 µM

Question: What about the TGI [56] of the same compound?
Answer: 32.1 µM

Question: And the TGI [57]?
Answer: 27.2 µM

Question: And the TGI [58]?
Answer: 30.8 µM

Question: What does the source list for `COC(=O)C1=C(C)NC(C)=C(C(=O)OC)C1c1ccc(N=O)cc1`?
Answer: TGI [22]: 27.7 µM; TGI [23]: > 60.3 µM; TGI [24]: 26.7 µM; TGI [2]: 23 µM; TGI [25]: 27.9 µM; TGI [26]: > 100 µM; TGI [3]: 24.5 µM; TGI [4]: 19.2 µM; TGI [27]: 34.1 µM; TGI [5]: 33.7 µM; TGI [28]: 36.8 µM; TGI [29]: 23.9 µM; TGI [30]: > 100 µM; TGI [6]: > 55.3 µM; TGI [7]: 8.95 µM; TGI [8]: 40.8 µM; TGI [9]: 40.8 µM; TGI [31]: 30.1 µM; TGI [32]: > 100 µM; TGI [33]: 33.4 µM; TGI [34]: 11.6 µM; TGI [35]: 23.3 µM; TGI [36]: 24.4 µM; TGI [37]: 37 µM; TGI [38]: 25.2 µM; TGI [10]: 32.6 µM; TGI [11]: 16.6 µM; TGI [39]: > 100 µM; TGI [12]: 39.3 µM; TGI [40]: 38.9 µM; TGI [41]: 41.9 µM; TGI [42]: 6.61 µM; TGI [59]: 50.9 µM; TGI [43]: 26.9 µM; TGI [44]: 14.2 µM; TGI [13]: 32.9 µM; TGI [45]: 21.7 µM; TGI [46]: 29.3 µM; TGI [14]: 5.02 µM; TGI [15]: 23.5 µM; TGI [16]: 43.9 µM; TGI [47]: > 61.3 µM; TGI [48]: 32 µM; TGI [49]: 28.2 µM; TGI [17]: 33.4 µM; TGI [50]: 30.9 µM; TGI [51]: 25.5 µM; TGI [18]: 35.8 µM; TGI [19]: > 81.2 µM; TGI [20]: 26.1 µM; TGI [53]: 12.9 µM; TGI [54]: 44.7 µM; TGI [21]: 29.2 µM; TGI [55]: 32.2 µM; TGI [56]: 23.2 µM; TGI [57]: 30 µM; TGI [58]: 26.3 µM
